The values below come from paper PMC7763113, “Design, synthesis, cytotoxic activity, and apoptosis inducing effects of 4- and N-substituted benzoyltaurinamide derivatives” (Turkish Journal of Chemistry, 2020).

Entries after “also recorded” stand apart in the source; their conditions may differ.

One data set has as its system SH-SY5Y cells. Put plainly: Annexin V-FITC/PI flow cytometry, SH-SY5Y. Format: cell-based, human. Conditions: 48 h, control 3.2%. Here is the method: (§1) The cells were harvested after 48 h, washed with PBS, and analyzed using the Annexin V FITC/PI Apoptosis Detection kit (BioVision, Mountain View, CA, USA) with a benchtop flow cytometer (Accuri C6 flow cytometry, Becton Dickinson).

A short description of data set [1]: MTT cytotoxicity assay, MCF-10a (nontumorigenic). The settings on record: MCF-10a nontumorigenic mammary cells, MCF-10a nontumorigenic human mammary cell line, mean ± SD, read-out: Cytotoxic activity IC50, MCF-10a. In kind it is cell-based. An excerpt:
[The source words this procedure for another cell line and reports this cell line under the same test.] (§2) The human neuroblastoma cells (SH-SY5Y), triple-negative breast cancer cells (MDA-MB-231), and human pancreatic cancer cells (Panc1) used in this study were purchased from the American Type Culture Collection (ATCC). The cells were suspended in complete Dulbecco’s modified Eagle medium (DMEM) (Life Technologies, Gibco BRL, Grand Island, NY) supplemented with 10% fetal bovine serum (FBS, Hyclone), 1% penicillin and streptomycin (100 U/mL, Invitrogen) and plated in cell culture dishes. The cultures were maintained at 37 °C in a 5% CO2 95% humidified atmosphere. After reaching 85% confluence, the cells were transferred to 96-well plates or culture dishes. For MTT assays, the cells were seeded into 96-well cell culture plates at a density of 2 × 10^3 cells per well and allowed to adhere for 24 h. The cells were treated with fresh medium containing experimental compounds (100, 10, 1 µM) and incubated in a 5% CO2 incubator for 48 and 72 h. For protein analysis, the cells were seeded into 6-well cell culture plates at a density of 0.5 x 10^6 cells/well and allowed to adhere to the surface for 24 h. The stock solutions of the test compounds (5 mM) were prepared in sterile DMSO, and these stocks were then appropriately diluted with the complete culture medium. DMSO levels were maintained below 1% in the test concentrations.
(§3) Briefly, following exposures, MTT (at a final concentration of 0.5 mg/mL) was added to each well, and plates were incubated for 2 h at 37 °C in a 5% CO2 humidified incubator. The reaction mixture was removed, and DMSO was added to each well. The plates were shaken at room temperature, and the absorbance was measured at 570 nm and 630 nm using a microplate reader (VersaMax, Molecular Devices, USA). Percent survival was plotted relative to vehicle control cells, which were normalized to 100% survival.
For orientation: Formazan colour is commonly taken as a measure of viable cells.

Data set [2] has as its system BAX, Bcl-2, Bcl-xL, caspase-3 and caspase-9 expression in PANC-1 cell line. The experiment in a line: Western blot of apoptotic proteins, PANC-1. Format: cell-based, human. Conditions: at IC50, 24 and 48 h, vs control. Here is the method: (§4) The cells (0.5 × 10^6 cell/well) were seeded into 6 well plates and incubated for 24 h, and then treated with selected experimental compounds for 24 h and 48 h. Following incubation, the cells were washed with ice-cold 1X PBS and lysed in 1X cell lysis buffer. These lysates were quantified using the BCA protein assay. Then, the cell lysates were analyzed by western blot.
(§5) On a 12% (w/v) tris-glycine denaturing gel, 20 μg protein was separated by electrophoresis, and then transferred to a PVDF membrane. After blocking, the membrane was incubated with primary antibodies, anti-Bax rabbit monoclonal antibody, anti-Bcl-2 rabbit monoclonal antibody, anti-Bcl-xL rabbit monoclonal antibody, anti-caspase-3 rabbit monoclonal antibody, and anti-caspase-9 rabbit monoclonal antibody (1:1000, Cell Signaling Technology) at 4 °C overnight. Following the incubation, the membrane was incubated with an anti-β-actin mouse monoclonal antibody (1:1000, Cell Signaling Technology) at room temperature for 1 h. After washing, the membrane was incubated with peroxidase-conjugated secondary antibodies for 1 h to visualize labeled proteins by enhanced chemiluminescence.
(Immunoblotting shows a protein as a band on a membrane.)

The test system of data set [3] is BAX, Bcl-2, Bcl-xL, caspase-3 and caspase-9 expression in MDA-MB-231 cell line. The experiment in a line: Western blot of apoptotic proteins, MDA-MB-231. Format: cell-based, human. The settings on record: for BAX protein levels: after only 24 h. Here is the method: as §4, §5
Data set [4] deals with SH-SY5Y human neuroblastoma cells. The experiment in a line: MTT cytotoxicity assay, SH-SY5Y. In kind it is cell-based. The settings on record: Homo sapiens, SH-SY5Y, mean ± SD, read-out: Cytotoxic activity IC50, SH-SY5Y.
From the text: as §2, §3

The test system of the next data set is PANC-1 cells. The experiment in a line: Annexin V-FITC/PI flow cytometry, PANC-1. In kind it is cell-based, human. Conditions: at cytotoxic concentrations, 48 h. Here is the method: as §1
(In general: Flow cytometry measures light scatter and fluorescence of single cells or particles in a stream.)

Data set [5] concerns PANC-1 human pancreatic cancer cells. The experiment in a line: MTT cytotoxicity assay, PANC-1. In kind it is cell-based. Conditions: Homo sapiens, PANC-1, MTT, mean ± SD, read-out: Cytotoxic activity IC50, PANC-1.
From the text: as §2, §3

The next data set has as its system MDA-MB-231 cells. Put plainly: Annexin V-FITC/PI flow cytometry, MDA-MB-231. Format: cell-based, human. Conditions: 48 h, control 1.2%. Here is the method:
as §1

Data set [6] has as its system MDA-MB-231 triple-negative breast cancer cells. Put plainly: MTT cytotoxicity assay, MDA-MB-231. In kind it is cell-based, human. Conditions: Homo sapiens, MDA-MB-231, MTT, mean ± SD, read-out: Cytotoxic activity IC50, MDA-MB-231.
From the text: as §2, §3

As usually defined, the melting point is the temperature, or range, at which the solid turns liquid. What is called IC50 is the concentration needed to halve the response being measured. `COc1ccc(NS(=O)(=O)CCNC(=O)c2ccc(OC)cc2)cc1` [Compound 15, 4-Methoxy-N-(2-(N-(4-methoxyphenyl)sulfamoyl)ethyl)benzamide] gave a melting point of 112 to 113 °C. The apoptotic cell ratios with SH-SY5Y cells came out at 3.9%. In addition, the concentration for half-maximal inhibition (IC50) in data set [1] was found to be 118 ± 1.4 µM. In [2], the Bcl-xL expression entry is “opposite effect”, the caspase-3 expression entry is listed as “opposite effect” and the caspase-9 expression entry was “opposite effect”. Further, in data set [3] (Western blot), the “caspase-3 expression (in words)” value is “increased”, the “caspase-9 expression levels (in words)” value is given as “did not exert any effect” and the BAX protein levels entry was “significantly increased”. For the same molecule, in [3] (after 24 and 48 h, compared to control), the “decrease of Bcl-2 expression” value is 2- to 3 fold. Further, the IC50 in [4] is 39.9 ± 1.6 µM. Moreover, the “apoptotic cell ratios (Annexin V-FITC/PI result)” value with PANC-1 cells is reported as “no significant changes; also recorded: negative”. Besides, the IC50 in data set [5] was 18.1 ± 1.6 µM. For the same molecule, in the data set on MDA-MB-231 cells, the “percent of the positive apoptotic cells” value was 1.4%. For the same molecule, the IC50 in data set [6] came to 33.9 ± 1.8 µM.
`COc1ccc(NS(=O)(=O)CCNC(=O)c2ccc(Cl)cc2)cc1` [Compound 14, 4-Chloro-N-(2-(N-(4-methoxyphenyl)sulfamoyl)ethyl)benzamide] registered a melting point of 160 to 161 °C. In the data set with SH-SY5Y cells, the apoptotic cell ratios was 3.8%. The IC50 in [1] was 109 ± 1.2 µM. Besides, in [2], the BAX expression entry was “increased”, the Bcl-2 expression entry is on record as “decrease”, the Bcl-xL expression result is on record as “decrease” and the caspase-3 expression result is given as “increased”. In [2], the caspase-9 expression entry is reported as “increased”. For the same molecule, the BAX protein levels result in data set [3] (Western blot) was “significantly increased”. Also, in data set [3] (after only 48 h, relative to control), the “increase of caspase-9 activity” value is recorded as 1.18 fold. The IC50 in data set [4] turned out to be 26 ± 1.4 µM. Further, in the data set on PANC-1 cells, the “apoptotic cell ratios (Annexin V-FITC/PI result)” value is on record as “no significant changes; also recorded: negative”. Further, the IC50 in data set [5] turned out to be 22.5 ± 1.7 µM. Besides, the “percent of the positive apoptotic cells” value in the data set on MDA-MB-231 cells is 1.6%. The IC50 in data set [6] was 19.9 ± 1.7 µM.
